Source: patent publication US7022707B2, “Piperazine derivatives” (Hoffman-La Roche Inc., priority 2000, dated 2006)
pEC50, pKi: −log10 of the molar value. Where a name gives a salt, the structure may show the parent alone. Read-outs that look alike come from different tables or passages of the source.

Assays:
human 5-HT2B receptors = target: T1, human 5-HT2B receptors (Homo sapiens, UniProt P41595); assay: Binding to 5-HT2B receptor, [3H]-5-HT, Method (b)
T1 construct: expressed in transfected cells; host or cells: CHO cell line
Protocol: (§1) The binding of compounds of formula (I) to serotonin receptors was determined in vitro by standard methods. The preparations were investigated in accordance with the assays given below.
Method (b): For the binding to the 5-HT2B receptor, the 5-HT2B receptors were radiolabeled with [^3H]-5-HT. The affinity of the compounds for human 5-HT2B receptors in a CHO cell line was determined according to the procedure of K. Schmuck, C. Ullmer, P. Engels and H. Lubbert, FEBS Lett., 1994, 342, 85–90.
(§2) The Ki value is definied as an inhibition constance and is determined from the IC50 value as described in Cheng, Yung-Chi and Prusoff, W. H., Biochem. Pharmacol., 1973, 22(23), 3099–108.

5-HT2C receptor [1] = target: T2, 5-HT2C receptor (Homo sapiens, UniProt P28335); assay: Functional activity, FLIPR calcium assay, CHO cells expressing human 5-HT2C; format: cell-based; parameters: expressed in transfected cells; host or cells: CHO cells; details: for h5-HT2c Relative Efficacy: maximum fluorescent signal relative to 10 μM 5-HT (defined as 100%)
T2 sequence (P28335 33-458): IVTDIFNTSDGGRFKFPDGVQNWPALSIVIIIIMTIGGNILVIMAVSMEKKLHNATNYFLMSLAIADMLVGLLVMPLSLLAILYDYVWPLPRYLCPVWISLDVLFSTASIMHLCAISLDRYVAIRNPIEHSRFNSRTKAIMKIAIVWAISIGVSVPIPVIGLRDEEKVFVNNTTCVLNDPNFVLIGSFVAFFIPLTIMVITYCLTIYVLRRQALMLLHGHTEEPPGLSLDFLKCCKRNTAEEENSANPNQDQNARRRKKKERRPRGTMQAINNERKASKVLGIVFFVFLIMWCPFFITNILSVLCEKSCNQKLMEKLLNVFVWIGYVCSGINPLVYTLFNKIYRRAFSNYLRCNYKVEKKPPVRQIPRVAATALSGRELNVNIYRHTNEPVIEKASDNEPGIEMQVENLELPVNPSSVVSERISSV
Protocol: (§3) The functional activity of compounds of formula (I) was assayed using a Fluorimetric Imaging Pate reader (FLIPR). CHO cells expressing the human 5-HT2C or human 5-HT2A receptors were counted and plated into standard 96 well microtitre plates on the day before testing to give a confluent monolayer. The cells were then dye loaded with the calcium sensitive dye, Fluo-3-AM. Unincorporated dye was removed using an automated cell washer to leave a total volume of 100 μL/well of assay buffer (Hanks balanced salt solution containing 20 mM Hepes and 2.5 mM probenecid). The drug (dissolved in 50 µL of the assay buffer) was added at a rate of 70 μL/sec to each well of the FLIPR 96 well plate during fluorescence measurements. The measurements were taken at 1 sec intervals and the maximum fluorescent signal was measured (approx 10–15 secs after drug addition) and compared with the response produced by 10 μM 5-HT (defined as 100%) to which it was expressed as a percentage response (relative efficacy). Dose response curves were constructed using Graphpad Prism (Graph Software Inc.).

5-HT2A receptor [2] = target: T3, 5-HT2A receptor (Homo sapiens, UniProt P28223); assay: Functional activity, FLIPR calcium assay, CHO cells expressing human 5-HT2A; format: cell-based; parameters: expressed in transfected cells; host or cells: CHO cells; details: for h5-HT2A Relative Efficacy: maximum fluorescent signal relative to 10 μM 5-HT (defined as 100%)
Protocol: as §3

5-HT2A receptor [3] = target: T3, 5-HT2A receptor; assay: Binding to 5-HT2A receptor, [125I]-DOI, Method (c); parameters: expressed in transfected cells; host or cells: CHO cell line
Protocol: as §1
Method (c): For the binding to the 5-HT2A receptor, the 5-HT2A receptors were radiolabeled with [^125I]-DOI. The affinity of the compounds for 5-HT2A receptors in a CHO cell line was determined according to the procedure of D. J. McKenna and S. J. Peroutka, J. Neurosci., 1989, 9, 3482–90.
as §2

5-HT2C receptor [4] = target: T2, 5-HT2C receptor; assay: Binding to 5-HT2C receptor, [3H]-5-HT, Method (a); parameters: expressed in transfected cells; host or cells: CHO cell line
Protocol: as §1
Method (a): For the binding to the 5-HT2C receptor, the 5-HT2C receptors were radiolabeled with [^3H]-5-HT. The affinity of the compounds for 5-HT2C receptors in a CHO cell line was determined according to the procedure of D. Hoyer, G. Engel and H. O. Kalkman, European J. Pharmacol., 1985, 118, 13–23.
as §2

[5] = tested on: human volunteers and obese subjects; details: literature, cited from earlier work
rats = details: literature; cited from earlier work
[6] = Method (b), [3H]-5-HT, human 5-HT2B in CHO cell line, Ki calculated from IC50, read-out: Ki (2B)
[7] = FLIPR, CHO cells, Fluo-3-AM, read-out: h5-HT2c EC50
[8] = FLIPR, CHO cells, Fluo-3-AM, read-out: h5-HT2A EC50
[9] = Method (c), [125I]-DOI, CHO cell line, Ki calculated from IC50, read-out: Ki (2A)
[10] = Method (a), [3H]-5-HT, CHO cell line, Ki calculated from IC50 (Cheng-Prusoff), read-out: Ki (2C)

T1 sequence (P41595 whole entry): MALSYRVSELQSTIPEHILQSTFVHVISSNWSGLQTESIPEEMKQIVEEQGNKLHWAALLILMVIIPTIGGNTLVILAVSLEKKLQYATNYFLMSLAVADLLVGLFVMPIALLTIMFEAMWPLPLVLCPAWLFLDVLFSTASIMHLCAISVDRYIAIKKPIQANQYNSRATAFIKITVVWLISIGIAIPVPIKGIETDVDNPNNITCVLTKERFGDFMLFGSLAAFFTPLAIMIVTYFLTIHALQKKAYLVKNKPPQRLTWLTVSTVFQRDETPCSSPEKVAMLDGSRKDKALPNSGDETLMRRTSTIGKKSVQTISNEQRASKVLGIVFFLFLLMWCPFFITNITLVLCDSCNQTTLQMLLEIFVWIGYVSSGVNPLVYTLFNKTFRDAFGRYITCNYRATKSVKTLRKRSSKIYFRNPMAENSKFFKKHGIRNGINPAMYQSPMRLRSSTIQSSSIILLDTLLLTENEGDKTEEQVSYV
T3 sequence (P28223 whole entry): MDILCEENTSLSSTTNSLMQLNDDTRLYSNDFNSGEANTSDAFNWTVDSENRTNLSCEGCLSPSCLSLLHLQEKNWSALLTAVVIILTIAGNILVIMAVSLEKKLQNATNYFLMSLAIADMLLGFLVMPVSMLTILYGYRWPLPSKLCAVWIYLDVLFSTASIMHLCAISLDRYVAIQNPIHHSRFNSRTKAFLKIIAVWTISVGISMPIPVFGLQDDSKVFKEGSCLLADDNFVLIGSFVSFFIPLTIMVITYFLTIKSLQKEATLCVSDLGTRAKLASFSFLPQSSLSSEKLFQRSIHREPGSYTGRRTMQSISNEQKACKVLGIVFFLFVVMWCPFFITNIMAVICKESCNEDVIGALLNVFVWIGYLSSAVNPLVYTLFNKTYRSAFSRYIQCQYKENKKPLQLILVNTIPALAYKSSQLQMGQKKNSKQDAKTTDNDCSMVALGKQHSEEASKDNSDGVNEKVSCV

Compound: Cl.O=C(OCc1ccc(OC(F)F)cc1)N1CCNCC1 [Example 22, Piperazine-1-carboxylic acid 4-difluoromethoxy-benzyl ester hydrochloride]
- pKi (human 5-HT2B receptors; [6]): 5.40
- pEC50 (5-HT2C receptor [1]; [7]): 7.00
- h5-HT2c Relative Efficacy (5-HT2C receptor [1]): 56%
- pEC50 (5-HT2A receptor [2]; [8]): 6.66
- h5-HT2A Relative Efficacy (5-HT2A receptor [2]): 24%
- pKi (5-HT2A receptor [3]; [9]): 7.36
- pKi (5-HT2C receptor [4]; [10]): 7.36

Compound: CCCCOc1ccc(F)c(COC(=O)N2CCNCC2)c1.O=C(O)/C=C/C(=O)O
- melting point: 142.4 to 143.5 °C

Compound: Clc1cccc(N2CCNCC2)c1 [mCPP, m-chlorophenylpiperazine]
- appetite and body weight ([5]; obese male and female subjects, subchronic treatment for a 14 day period): decreased the appetite and body weight
- food intake ([5]; single dose, female volunteers): decreased food intake
- food intake in rats (rats): reduce food intake

Compound: Cc1noc(C)c1COc1cc(F)c(COC(=O)N2[C@H](C)CNC[C@@H]2C)c(F)c1 [Example 121, cis-2,6-Dimethyl-piperazine-1-carboxylic acid 4-(3,5-dimethyl-isoxazol-4-ylmethoxy)-2,6-difluoro-benzyl esterfumarate]
- pKi (human 5-HT2B receptors; [6]): 5.08
- pEC50 (5-HT2C receptor [1]; [7]): 7.66
- h5-HT2c Relative Efficacy (5-HT2C receptor [1]): 91%
- pEC50 (5-HT2A receptor [2]; [8]): 6.26
- h5-HT2A Relative Efficacy (5-HT2A receptor [2]): 11%
- pKi (5-HT2A receptor [3]; [9]): 6.70
- pKi (5-HT2C receptor [4]; [10]): 7.82

Compound: Cl.O=C(SCc1ccc(OCc2ccccc2)cc1)N1CCNCC1 [Example 32, Piperazine-1-carbothioic acid S-(4-benzyloxy-benzyl) ester hydrochloride]
- pKi (human 5-HT2B receptors; [6]): 6.43
- pEC50 (5-HT2C receptor [1]; [7]): 7.42
- h5-HT2c Relative Efficacy (5-HT2C receptor [1]): 65%
- pEC50 (5-HT2A receptor [2]; [8]): 6.25
- h5-HT2A Relative Efficacy (5-HT2A receptor [2]): 22%
- pKi (5-HT2A receptor [3]; [9]): 8.22
- pKi (5-HT2C receptor [4]; [10]): 7.82

Compound: Cl.O=C(OCc1ccc(Br)cc1F)N1CCNCC1
- melting point: 209.5 to 209.6 °C

Compound: CCCOc1cc(F)c(COC(=O)N2CCNC[C@H]2C)c(F)c1.O=C(O)/C=C/C(=O)O
- melting point: 193.9 to 194 °C

Compound: CCCOc1ccc(F)c(COC(=O)N2CCNC[C@H]2C)c1.O=C(O)/C=C/C(=O)O
- melting point: 162.6 to 162.7 °C

Compound: CC(C)COc1ccc(F)c(COC(=O)N2[C@H](C)CNC[C@@H]2C)c1.O=C(O)/C=C/C(=O)O
- melting point: 178.6 to 178.7 °C

Compound: C[C@@H]1CNCCN1C(=O)OCc1ccc(OC(F)F)cc1.O=C(O)/C=C/C(=O)O
- melting point: 123.9 to 124.5 °C

Compound: CCCOc1cc(F)c(COC(=O)N2CCNCC2CC)c(F)c1.O=C(O)/C=C/C(=O)O (racemic)
- melting point: 145 to 165 °C (dec.)

Compound: Cl.O=C(SCc1ccc(OCc2ccc(F)cc2)cc1)N1CCNCC1
- melting point: 169 to 169.5 °C

Compound: CCCCOc1ccc(F)c(COC(=O)N2[C@H](C)CNC[C@@H]2C)c1.O=C(O)/C=C/C(=O)O
- melting point: 153.2 to 153.5 °C

Compound: C[C@@H]1CNC[C@H](C)N1C(=O)OCc1c(F)ccc(Br)c1F.Cl
- melting point: 207 to 210 °C

Compound: CCCOc1ccc(F)c(COC(=O)N2CCNCC2)c1.O=C(O)/C=C/C(=O)O
- melting point: 155.9 to 156.1 °C

Compound: CCOc1ccc(F)c(COC(=O)N2[C@H](C)CNC[C@@H]2C)c1.O=C(O)/C=C/C(=O)O
- melting point: 142.9 to 143.3 °C

Compound: CC(C)NC(=O)Oc1ccc(CSC(=O)N2CCNCC2)cc1 [Example 63, S-4-[(2-Propylamino)carbonyl]oxybenzyl piperazine-1-thiocarboxylate hydrochloride]
- pKi (human 5-HT2B receptors): 5.08
- pEC50 (5-HT2C receptor [1]): 7.48
- h5-HT2c Relative Efficacy (5-HT2C receptor [1]): 74%
- pEC50 (5-HT2A receptor [2]): 6.43
- h5-HT2A Relative Efficacy (5-HT2A receptor [2]): 25%
- pKi (5-HT2A receptor [3]): 6.26
- pKi (5-HT2C receptor [4]): 7.48

Compound: CCCCOc1ccc(F)c(COC(=O)N2CCNC[C@H]2C)c1.O=C(O)/C=C/C(=O)O
- melting point: 171.6 to 171.7 °C
